ChEMBL document CHEMBL1201862, “PubChem BioAssay data set” (2004)
Calls of active or inactive are those of the source.

What was measured:
[1] = target: Adenosylmethionine-8-amino-7-oxononanoate aminotransferase (Mycobacterium tuberculosis, UniProt P9WQ81); assay: Mycobacterium tuberculosis BioA enzyme inhibitor Measured in Biochemical System Using Plate Reader - 2163-02_Inhibitor_Dose_CherryPick_Activity.; assay type: functional, Mycobacterium tuberculosis UT205
[2] = target: Nuclear receptor subfamily 5 group A member 2 (Homo sapiens, UniProt O00482); assay type: functional, cell-based;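 note: HEK293T cells transfected with LRH-1 and a StAR promoter luciferase reporter; potency for inhibitors that lower LRH-1 driven reporter light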
[3] = target: Steroidogenic factor 1 (Homo sapiens, UniProt Q13285); assay: Counterscreen for inverse agonists of the liver receptor homolog-1 (LRH-1; NR5A2): Luminescence-based cell-based high throughput dose response assay to identify inverse agonists of the Steroidogenic Factor 1 Nuclear Receptor (SF1; NR5A1).; assay type: functional
[4] = StAR promoter reporter inhibition counter-screen, dose response, counter-screen for LRH-1 inverse agonist project, cell-based, luminescence, luciferase reporter (AID 651969); assay type: functional
[5] = target: T1, Probable nicotinate-nucleotide adenylyltransferase (Staphylococcus aureus (strain N315), UniProt P65502); assay type: functional, Staphylococcus aureus subsp. aureus N315;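 for IC50 Mean: confirmatory dose-response retesting of NadD inhibitor hits first found in an ultra-high-throughput screen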
[6] = target: T1, Probable nicotinate-nucleotide adenylyltransferase; assay type: functional, Staphylococcus aureus subsp. aureus N315; conditions: read-out: IC50_Mean
[7] = Fluorescence-based cell-based high throughput dose response assay for inhibitors of the interaction of nucleotide-binding oligomerization domain containing 2 (NOD2) and the receptor-interacting serine-threonine kinase 2 (RIPK2).; assay type: functional; conditions: Homo sapiens
[8] = target: Beta Lactamase (Pseudomonas aeruginosa, UniProt Q932Y6); assay: beta-lactamase reporter inhibitor potency, dose response, artefact control for NOD2-RIPK2 interaction inhibitor project, BLA reporter cells, FRET fluorescence (AID 651552); assay type: functional, cell-based
[9] = target: T2, Fatty acid synthase (Homo sapiens, UniProt P49327); assay: FAS thioesterase domain inhibitors, dose response, biochemical, endpoint fluorescence intensity, uHTS hits (AID 624327); assay type: functional;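 note: fluorescence from hydrolysis of an O-methyl fluorescein acyl ester substrate by the enzyme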
[10] = target: T2, Fatty acid synthase; assay: FAS thioesterase domain inhibitors, dose response, biochemical, kinetic fluorescence intensity (AID 624326); assay type: functional;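 note: rate of fluorescence rise from hydrolysis of a fluorogenic O-methyl fluorescein ester substrate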
[11] = LGR2 antagonists, dose response, cell-based, HEK293, CRE-luciferase reporter, cherry pick, set 2 (AID 743343); assay type: functional;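 note: transfected cells were stimulated with diluted bursicon conditioned medium after compound addition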
[12] = MC4R antagonists, dose response, counter-screen for LGR2 antagonist project, cell-based, plate reader, cherry pick (AID 743444); assay type: functional;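 note: transfected HEK 293 cells stimulated with alpha-MSH peptide; potency of inhibitors of the alpha-MSH evoked signal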
[13] = target: T3, Methionyl-tRNA synthetase, putative (Trypanosoma brucei brucei, UniProt Q38C91); assay type: functional, Trypanosoma brucei brucei strain 927/4 GUTat10.1
T3 sequence (Q38C91 whole entry): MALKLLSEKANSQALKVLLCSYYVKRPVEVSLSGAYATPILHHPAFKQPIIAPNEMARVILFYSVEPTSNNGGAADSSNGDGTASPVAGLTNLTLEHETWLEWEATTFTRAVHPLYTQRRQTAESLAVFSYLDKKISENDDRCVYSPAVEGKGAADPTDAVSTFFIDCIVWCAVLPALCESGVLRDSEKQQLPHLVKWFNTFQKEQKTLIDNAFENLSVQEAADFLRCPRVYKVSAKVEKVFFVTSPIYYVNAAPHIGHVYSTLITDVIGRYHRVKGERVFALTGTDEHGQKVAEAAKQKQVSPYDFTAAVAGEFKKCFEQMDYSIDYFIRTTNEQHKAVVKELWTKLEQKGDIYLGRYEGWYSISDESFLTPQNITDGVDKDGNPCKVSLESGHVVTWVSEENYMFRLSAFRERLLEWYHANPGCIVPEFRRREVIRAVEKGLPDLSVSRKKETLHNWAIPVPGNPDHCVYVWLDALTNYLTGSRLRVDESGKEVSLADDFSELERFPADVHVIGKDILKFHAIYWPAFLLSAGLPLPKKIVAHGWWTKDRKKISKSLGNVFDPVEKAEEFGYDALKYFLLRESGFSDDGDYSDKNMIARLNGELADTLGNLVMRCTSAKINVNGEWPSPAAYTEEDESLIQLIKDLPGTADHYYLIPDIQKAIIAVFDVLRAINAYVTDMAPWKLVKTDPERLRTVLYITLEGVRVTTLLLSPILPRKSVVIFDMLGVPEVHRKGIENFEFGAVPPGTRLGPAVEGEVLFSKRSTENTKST

[14] = Counterscreen for inhibitors of Trypanosoma brucei methionyl tRNA synthetase (MetRS): Luminescence-based cell-based high throughput dose response assay to identify compounds that are cytotoxic to Jurkat human T lymphocyte cells.; assay type: functional
[15] = target: T3, Methionyl-tRNA synthetase, putative; assay type: functional, Trypanosoma brucei brucei strain 927/4 GUTat10.1; remark: listed apart in the source
[16] = PAX2 cell-based inhibition, dose response, selectivity assay for PAX8 inhibitor project, plate reader, dry powder samples (AID 743048); assay type: functional;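 note: HEK293 cells carrying a WT1 promoter luciferase reporter driven by expressed Pax2; potency is for inhibition of Pax2 driven reporter signal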
[17] = cytotoxicity in COV362 ovarian cancer cells, dose response, cytotoxicity control for PAX8 inhibitor project, cell-based, plate reader, dry powder, SA12 (AID 743144); assay type: functional
[18] = A2780 ovarian cancer cell cytotoxicity, dose response, cytotoxicity control, plate reader, dry powder samples (AID 743046); assay type: functional, cell-based
[19] = IGROV1 ovarian cancer cell cytotoxicity, dose response, PAX8 inhibitor project, plate reader, dry powder samples (AID 743043); assay type: functional, cell-based; conditions: IGROV-1
[20] = cytotoxicity in COV434 cells, dose response, cytotoxicity control for PAX8 inhibitor project, cell-based, plate reader, dry powder, SA7 (AID 743145); assay type: functional
[21] = inhibitors of HIV Env-driven cell fusion, dose response, cherry-pick (AID 652057); assay type: functional, cell-based
[22] = ZM109 Env clade C HIV-1 fusion inhibitors, dose response, HeLa effector, CEM target cells, luciferase, cherry-pick (AID 652058); assay type: functional, cell-based
[23] = off-target signal loss in HeLa-CEM21 co-culture – HeLa F-luc CTL cells, cherry-picked, counter-screen for HIV-1 Env fusion inhibitor project, dose response (AID 652040); assay type: functional, cell-based;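 note: potency for signal decrease marking cytotoxic or nonspecific inhibition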
[24] = inhibitors of clade B AD8 Env fusion, dose response, cell-based, cherry-pick (AID 652062); assay type: functional;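 note: luciferase signal from cell-cell fusion driven by HIV-1 clade B AD8 Env; potency is for inhibitors of fusion seen as a drop in luminescence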
[25] = T. cruzi intracellular amastigote growth inhibition, dose response, imaging, CA-I/72 strain, bovine embryo skeletal muscle, dry powder (AID 651885); assay type: functional, cell-based
[26] = test system: Vero; assay: Vero cell toxicity, dose response, cytotoxicity control, plate reader, cherry-pick samples (AID 687020); assay type: functional, cell-based; conditions: Chlorocebus sabaeus
[27] = test system: A549; assay: A549 cell toxicity, dose response, cytotoxicity control, plate reader, cherry-pick samples (AID 687028); assay type: functional, cell-based; conditions: Homo sapiens

T2 sequence (P49327 whole entry, the tested form may be a part): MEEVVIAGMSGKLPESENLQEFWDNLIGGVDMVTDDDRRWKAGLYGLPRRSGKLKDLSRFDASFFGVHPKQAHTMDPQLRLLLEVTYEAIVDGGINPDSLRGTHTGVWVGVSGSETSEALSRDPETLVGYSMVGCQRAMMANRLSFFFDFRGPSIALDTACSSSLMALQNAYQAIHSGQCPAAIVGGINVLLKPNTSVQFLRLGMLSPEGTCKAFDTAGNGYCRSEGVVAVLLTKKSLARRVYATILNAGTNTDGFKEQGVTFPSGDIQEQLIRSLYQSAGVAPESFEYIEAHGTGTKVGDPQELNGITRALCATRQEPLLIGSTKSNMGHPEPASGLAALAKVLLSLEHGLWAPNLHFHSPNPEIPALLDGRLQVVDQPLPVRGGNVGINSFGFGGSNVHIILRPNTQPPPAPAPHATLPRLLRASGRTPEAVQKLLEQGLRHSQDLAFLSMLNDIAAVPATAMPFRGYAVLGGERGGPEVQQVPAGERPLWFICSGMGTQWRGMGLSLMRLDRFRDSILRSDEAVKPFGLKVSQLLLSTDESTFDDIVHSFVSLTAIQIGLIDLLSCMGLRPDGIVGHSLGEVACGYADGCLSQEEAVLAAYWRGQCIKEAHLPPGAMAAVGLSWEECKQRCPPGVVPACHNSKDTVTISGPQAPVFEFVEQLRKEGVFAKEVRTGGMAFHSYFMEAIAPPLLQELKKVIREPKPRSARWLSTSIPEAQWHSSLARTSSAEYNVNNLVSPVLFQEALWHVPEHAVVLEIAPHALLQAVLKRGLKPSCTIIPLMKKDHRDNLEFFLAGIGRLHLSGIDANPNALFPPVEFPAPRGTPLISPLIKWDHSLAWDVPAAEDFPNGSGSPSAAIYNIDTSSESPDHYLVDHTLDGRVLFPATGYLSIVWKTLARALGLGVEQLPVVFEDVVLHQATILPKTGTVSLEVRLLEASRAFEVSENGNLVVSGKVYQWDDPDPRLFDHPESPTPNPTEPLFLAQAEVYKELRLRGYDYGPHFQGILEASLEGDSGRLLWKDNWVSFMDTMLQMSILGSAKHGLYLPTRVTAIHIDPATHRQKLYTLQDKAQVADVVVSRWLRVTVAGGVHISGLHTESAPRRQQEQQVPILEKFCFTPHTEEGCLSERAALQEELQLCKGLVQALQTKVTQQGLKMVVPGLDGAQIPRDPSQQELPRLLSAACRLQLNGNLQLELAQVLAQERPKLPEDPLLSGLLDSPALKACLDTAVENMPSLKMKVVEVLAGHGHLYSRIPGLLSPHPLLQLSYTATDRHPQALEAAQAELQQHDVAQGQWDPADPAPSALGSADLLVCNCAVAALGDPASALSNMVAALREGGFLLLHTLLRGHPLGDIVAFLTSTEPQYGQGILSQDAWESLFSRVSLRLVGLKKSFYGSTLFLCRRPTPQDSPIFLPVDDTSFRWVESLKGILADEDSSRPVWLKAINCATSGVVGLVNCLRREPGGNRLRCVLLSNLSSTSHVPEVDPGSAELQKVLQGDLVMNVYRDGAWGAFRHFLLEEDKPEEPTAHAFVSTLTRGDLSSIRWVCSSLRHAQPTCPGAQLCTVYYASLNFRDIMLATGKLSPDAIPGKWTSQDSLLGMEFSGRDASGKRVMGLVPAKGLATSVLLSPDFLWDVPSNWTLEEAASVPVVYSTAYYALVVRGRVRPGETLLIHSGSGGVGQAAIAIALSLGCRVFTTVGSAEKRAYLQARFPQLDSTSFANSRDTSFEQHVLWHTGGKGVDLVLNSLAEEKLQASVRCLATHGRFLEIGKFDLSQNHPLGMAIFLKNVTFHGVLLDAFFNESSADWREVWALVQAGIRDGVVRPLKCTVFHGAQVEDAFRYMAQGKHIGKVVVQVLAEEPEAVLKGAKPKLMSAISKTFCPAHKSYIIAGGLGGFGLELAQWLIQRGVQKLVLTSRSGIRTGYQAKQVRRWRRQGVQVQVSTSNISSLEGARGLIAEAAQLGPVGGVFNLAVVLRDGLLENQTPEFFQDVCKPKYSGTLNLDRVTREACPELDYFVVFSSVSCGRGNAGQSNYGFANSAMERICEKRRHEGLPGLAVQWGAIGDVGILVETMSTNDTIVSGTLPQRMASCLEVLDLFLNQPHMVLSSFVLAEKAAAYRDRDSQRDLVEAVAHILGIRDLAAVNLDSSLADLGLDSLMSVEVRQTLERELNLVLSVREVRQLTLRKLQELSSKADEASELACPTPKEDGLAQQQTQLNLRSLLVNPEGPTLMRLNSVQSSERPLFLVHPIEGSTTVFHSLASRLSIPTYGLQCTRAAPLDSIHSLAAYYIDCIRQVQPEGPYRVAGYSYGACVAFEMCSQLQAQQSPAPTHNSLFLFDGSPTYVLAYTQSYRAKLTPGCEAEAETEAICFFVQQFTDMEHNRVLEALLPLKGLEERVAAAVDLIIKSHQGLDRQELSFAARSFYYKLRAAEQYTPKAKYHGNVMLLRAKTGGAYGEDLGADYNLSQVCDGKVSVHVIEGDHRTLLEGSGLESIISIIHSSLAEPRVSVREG
T1 sequence (P65502 whole entry): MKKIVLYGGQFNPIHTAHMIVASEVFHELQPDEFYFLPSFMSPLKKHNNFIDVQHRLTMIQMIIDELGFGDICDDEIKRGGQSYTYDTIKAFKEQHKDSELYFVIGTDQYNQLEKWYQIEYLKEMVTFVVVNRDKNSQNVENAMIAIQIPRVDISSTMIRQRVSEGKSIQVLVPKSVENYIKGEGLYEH
Chain of Beta Lactamase (Q932Y6 whole entry, the tested form may be a part): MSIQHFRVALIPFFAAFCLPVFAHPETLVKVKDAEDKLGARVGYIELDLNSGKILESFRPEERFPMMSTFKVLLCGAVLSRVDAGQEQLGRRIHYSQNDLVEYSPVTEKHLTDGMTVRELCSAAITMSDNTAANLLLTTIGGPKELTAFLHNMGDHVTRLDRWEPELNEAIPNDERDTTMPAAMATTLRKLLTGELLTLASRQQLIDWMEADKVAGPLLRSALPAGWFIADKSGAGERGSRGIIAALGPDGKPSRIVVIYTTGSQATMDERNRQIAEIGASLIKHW
Chain of Nuclear receptor subfamily 5 group A member 2 (O00482 whole entry): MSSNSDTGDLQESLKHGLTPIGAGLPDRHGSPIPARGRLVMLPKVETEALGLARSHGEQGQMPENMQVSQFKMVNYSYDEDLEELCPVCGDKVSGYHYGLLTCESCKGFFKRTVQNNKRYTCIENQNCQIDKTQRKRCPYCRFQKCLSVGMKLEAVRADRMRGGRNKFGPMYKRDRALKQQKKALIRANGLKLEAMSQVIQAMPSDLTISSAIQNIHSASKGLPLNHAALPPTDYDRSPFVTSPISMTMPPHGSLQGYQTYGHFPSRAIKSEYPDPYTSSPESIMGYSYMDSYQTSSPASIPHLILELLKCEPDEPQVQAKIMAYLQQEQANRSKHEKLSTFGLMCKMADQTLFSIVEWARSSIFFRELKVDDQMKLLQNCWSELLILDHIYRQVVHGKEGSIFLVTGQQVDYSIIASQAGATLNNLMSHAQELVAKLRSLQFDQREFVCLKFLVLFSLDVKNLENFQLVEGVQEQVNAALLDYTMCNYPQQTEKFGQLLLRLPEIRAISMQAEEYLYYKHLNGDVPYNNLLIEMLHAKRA
Chain of Steroidogenic factor 1 (Q13285 whole entry): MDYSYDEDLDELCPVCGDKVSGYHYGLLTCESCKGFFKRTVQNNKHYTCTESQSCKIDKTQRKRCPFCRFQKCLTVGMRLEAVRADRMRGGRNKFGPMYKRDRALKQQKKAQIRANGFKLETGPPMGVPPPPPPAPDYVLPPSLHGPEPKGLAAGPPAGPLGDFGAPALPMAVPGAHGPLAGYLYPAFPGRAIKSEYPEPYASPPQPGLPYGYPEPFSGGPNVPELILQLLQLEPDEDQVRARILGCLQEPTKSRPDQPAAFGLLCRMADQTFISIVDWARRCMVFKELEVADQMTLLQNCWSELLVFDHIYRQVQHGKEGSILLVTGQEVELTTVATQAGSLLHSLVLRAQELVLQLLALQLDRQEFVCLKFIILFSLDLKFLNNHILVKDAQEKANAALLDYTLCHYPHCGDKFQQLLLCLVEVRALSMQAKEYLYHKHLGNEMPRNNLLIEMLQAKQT
Chain of Adenosylmethionine-8-amino-7-oxononanoate aminotransferase (P9WQ81 whole entry): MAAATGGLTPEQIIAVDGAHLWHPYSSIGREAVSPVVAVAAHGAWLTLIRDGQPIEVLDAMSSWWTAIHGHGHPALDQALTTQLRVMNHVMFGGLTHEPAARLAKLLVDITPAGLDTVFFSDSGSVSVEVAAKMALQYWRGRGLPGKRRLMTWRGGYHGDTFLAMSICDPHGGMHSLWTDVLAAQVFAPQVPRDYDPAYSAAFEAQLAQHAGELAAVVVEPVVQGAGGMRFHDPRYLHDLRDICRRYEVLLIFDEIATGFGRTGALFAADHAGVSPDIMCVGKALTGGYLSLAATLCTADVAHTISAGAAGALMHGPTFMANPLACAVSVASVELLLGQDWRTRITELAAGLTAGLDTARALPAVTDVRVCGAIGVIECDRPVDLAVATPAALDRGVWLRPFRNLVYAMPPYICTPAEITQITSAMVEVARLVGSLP

**Q.** For `COc1cc(-c2nnc(S)n2Cc2ccccc2)cc(OC)c1OC`, which AC50 [1] is on record?
**A.** The AC50 was 2.51 µM (active).

**Q.** With `Cc1cccc(NC(=O)COC(=O)Cc2cccs2)c1C` as the compound, how does the IC50 [2] read?
**A.** Its IC50 is 12.8 µM (inactive).

**Q.** And the IC50 [3]?
**A.** The IC50 was 7.35 µM (active).

**Q.** What about the IC50 [4] of the same compound?
**A.** Its IC50 is 35.9 µM (inactive).

**Q.** Which IC50 [5] does the source give for `CCc1cccc2c1NC(=O)C21N2CCCC2C(C(=O)c2ccc3ccccc3c2)C12C(=O)Nc1ccccc12` (configuration not stated) here?
**A.** Its IC50 is 16.2 µM (active).

**Q.** What about the IC50 [6] of the same compound?
**A.** The IC50 was 35.7 µM (active).

**Q.** Which results are given for `CCOC(=O)[C@]12Cc3ccc(C)cc3[C@H]1N(C1CCCCC1)C(=O)c1cc(OC)ccc12`?
**A.** IC50 [7]: 2.32 µM (active); IC50 [8]: 19.1 µM (inactive); IC50 [9]: 5.7 µM (active); IC50 [10]: 5.14 µM (active)

**Q.** Which results are given for `O=C(NCCc1ccccc1)c1ccc2c(c1)OCO2`?
**A.** AC50 [11]: 2.31 µM (active); AC50 [12]: 2.88 µM (active)

**Q.** With `CN(C)S(=O)(=O)c1cccc(NC(=O)Cc2ccc(Cl)cc2)c1` as the compound, how does the IC50 [13] read?
**A.** The IC50 was 72.3 µM (inactive).

**Q.** And the IC50 [14]?
**A.** The IC50 was 83.3 µM (inactive).

**Q.** And the IC50 [15]?
**A.** The IC50 was 32.3 µM (inactive).

**Q.** For `N#C[C@H]1[C@@H](c2ccc(C#Cc3cccc(F)c3)cc2)[C@@H](CO)N1C(=O)C1CCCC1`, which AC50 [16] is on record?
**A.** Its AC50 is > 70 µM (inactive).

**Q.** What about the AC50 [17] of the same compound?
**A.** Its AC50 is > 70 µM (inactive).

**Q.** What about the AC50 [18] of the same compound?
**A.** The AC50 was 17.6 µM (active).

**Q.** What about the AC50 [19] of the same compound?
**A.** Its AC50 is 10.6 µM (active).

**Q.** And the AC50 [20]?
**A.** Its AC50 is > 70 µM (inactive).

**Q.** What does the source list for `COc1cccc(Cl)c1NC(=O)N1CCc2c([nH]c3ccccc23)C1C(F)(F)F` (configuration not stated)?
**A.** AC50 [21]: 4.56 µM (active); AC50 [22]: 15 µM (active); AC50 [23]: 2.65 µM (active); AC50 [24]: 36.8 µM (active)

**Q.** With `CC(C)N(C)C(=O)c1cccc(NC(=O)c2ccncc2)c1OCCCN(C)C(=O)OC(C)(C)C` as the compound, how does the IC50 [25] read?
**A.** The IC50 was 10.2 µM (inconclusive).

**Q.** Which results are given for `CCC(C)[C@H](NC(=O)[C@@H]1Cc2ccccc2CN1)C(=O)NCc1ccc(C)cc1` (some centres not stated)?
**A.** AC50 [26]: 29.5 µM (active); AC50 [27]: 20.9 µM (active)
